This is an account of results in ChEMBL document CHEMBL5576104, “Design, synthesis, and anti-melanogenic efficacy of 2-mercaptobenzoxazoles with nanomolar tyrosinase activity inhibition” (Bioorg Med Chem, 2024).

Activity calls are given as the source filed them. No cut-off for these calls is given here.

The target of data set [1] is T1, Mushroom tyrosinase (Agaricus bisporus, UniProt O42713+Q00024+C7FF04+C7FF05). Description: Inhibition of mushroom tyrosinase using L-DOPA as substrate incubated for 30 mins by absorbance based microplate reader analysis. It counts as protein assay.
For data set [2], the target named is T1, Mushroom tyrosinase. As to the kind of experiment: Inhibition of mushroom tyrosinase using L-tyrosine as substrate incubated for 30 mins by absorbance based microplate reader analysis. The class given is protein assay.
Data set [3] concerns B16-F10. As to the kind of experiment: Cytotoxicity against mouse B16-F10 cells assessed as reduction in cell viability at <=20 uM incubated for 72 hrs by EZ-Cytox assay. It counts as toxicity, cell-based. Particulars: b16-f10, 72 h.
Data set [4] is described as follows: Cytotoxicity against human HaCaT cells assessed as cell viability at 5 uM incubated for 24 hrs by EZ-Cytox assay relative to control. The class given is toxicity, cell-based. The conditions noted are these: read-out: Activity.
The nature of data set [5]: Cytotoxicity against human HaCaT cells assessed as cell viability at 10 uM incubated for 24 hrs by EZ-Cytox assay relative to control. It counts as toxicity, cell-based. The conditions noted are these: read-out: Activity.
Data set [6] is described as follows: Cytotoxicity against human HaCaT cells assessed as cell viability at 20 uM incubated for 24 hrs by EZ-Cytox assay relative to control. It counts as toxicity, cell-based. The conditions noted are these: read-out: Activity.
Data set [7] can be described thus: Antioxidant activity assessed as ABTS radical scavenging activity at 100 uM preincubated under dark condition for 2 mins and measured every 1 min for 10 mins by absorbance based microplate reader analysis relative to control. Particulars: time 12.0 min. It counts as functional.
The subject of another data set is HaCaT. As to the kind of experiment: Cytotoxicity against human HaCaT cells assessed as reduction in cell viability at 5 to 20 uM incubated for 24 hrs by EZ-Cytox assay. The class given is toxicity, cell-based. Particulars: dose 5-20 µM.
Data set [8] concerns the target T2, Mushroom tyrosinase (Agaricus bisporus) (UniProt O42713+Q00024+C7FF04+C7FF05). Description: Potency index, ratio of kojic acid IC50 to test compound IC50 for inhibition of mushroom tyrosinase using L-DOPA as substrate incubated for 30 mins by absorbance based microplate reader analysis. It counts as protein assay.
The test system of data set [9] is B16-F10. As to the kind of experiment: Antimelanogenic activity against IBMX/[…] stimulated mouse B16-F10 cells assessed as reduction in intracellular melanin content preincubated for 1 hr followed by IBMX/[…] addition and measured after 72 hrs by microplate reader analysis. The class given is functional, cell-based. Particulars: dose 5-20 µM, time 73.0 hrs.

The target in data set [10] is T3, Tyrosinase (Mus musculus) (UniProt P11344).
T3 sequence (whole entry): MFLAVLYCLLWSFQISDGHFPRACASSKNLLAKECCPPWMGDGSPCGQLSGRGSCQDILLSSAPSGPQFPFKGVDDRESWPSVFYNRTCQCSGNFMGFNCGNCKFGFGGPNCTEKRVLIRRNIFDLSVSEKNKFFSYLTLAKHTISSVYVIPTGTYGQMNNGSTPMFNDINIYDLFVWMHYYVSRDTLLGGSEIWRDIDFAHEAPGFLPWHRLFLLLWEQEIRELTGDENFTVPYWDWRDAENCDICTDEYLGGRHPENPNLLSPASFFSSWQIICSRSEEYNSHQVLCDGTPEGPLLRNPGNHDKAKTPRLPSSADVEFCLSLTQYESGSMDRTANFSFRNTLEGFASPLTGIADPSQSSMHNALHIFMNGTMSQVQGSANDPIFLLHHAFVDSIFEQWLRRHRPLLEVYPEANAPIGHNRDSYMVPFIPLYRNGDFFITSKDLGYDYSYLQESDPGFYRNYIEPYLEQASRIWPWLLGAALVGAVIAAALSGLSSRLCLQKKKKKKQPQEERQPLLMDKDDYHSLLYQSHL
Description: Inhibition of tyrosinase activity in IBMX/[…] stimulated mouse B16-F10 cells preincubated for 1 hr followed by IBMX/[…] addition and measured after 72 hrs by microplate reader assay. The class given is cell-based. The conditions noted are these: dose 5-20 µM, time 73.0 hrs.

For data set [11], the target named is T2, Mushroom tyrosinase (Agaricus bisporus). Description: Potency index, ratio of phenylthiourea IC50 to test compound IC50 for inhibition of mushroom tyrosinase. It counts as protein assay.
For data set [12] the target is unchanged. As to the kind of experiment: Inhibition of mushroom tyrosinase using L-DOPA as substrate at 500 nM incubated for 30 mins by absorbance based microplate reader analysis relative to control. The class given is protein assay.
Data set [13] shares this target. As to the kind of experiment: Inhibition of mushroom tyrosinase using L-DOPA as substrate at 500 nM incubated for 30 mins in presence of CuSO4 by absorbance based microplate reader analysis relative to control. The class given is protein assay.
For data set [14] the target is unchanged. As to the kind of experiment: Mixed-type inhibition of mushroom tyrosinase using L-DOPA as substrate assessed as decrease in Vmax with increase in Km upto 0.2 uM using varying concentrations of substrate by Lineweaver-Burk plot analysis. The class given is protein assay.
The target in data set [15] is T1, Mushroom tyrosinase. As to the kind of experiment: Binding affinity to mushroom tyrosinase using L-DOPA as substrate assessed as inhibition constant by Dixon plot analysis. It counts as protein assay.
The target in data set [16] is T2, Mushroom tyrosinase (Agaricus bisporus). As to the kind of experiment: Potency index, ratio of phenylthiourea IC50 to test compound IC50 for inhibition of mushroom tyrosinase using L-tyrosine as substrate incubated for 30 mins by absorbance based microplate reader analysis. The class given is protein assay.
The target is the same in data set [17]. As to the kind of experiment: Mixed-type inhibition of mushroom tyrosinase using L-DOPA as substrate assessed as decrease in Vmax with increase in Km upto 1.8 uM using varying concentrations of substrate by Lineweaver-Burk plot analysis. The class given is protein assay.
Data set [18] shares this target. As to the kind of experiment: Competitive inhibition of mushroom tyrosinase using L-DOPA as substrate assessed as increase in Km with constant Vmax upto 0.2 uM using varying concentrations of substrate by Lineweaver-Burk plot analysis. It counts as protein assay.

In the case of `O=[N+]([O-])c1ccc2oc(=S)[nH]c2c1`, the 50% inhibitory concentration (IC50) at Mushroom tyrosinase [1] worked out at 5810 nM; against Mushroom tyrosinase [2], 2410 nM. Besides, the results for the Activity result (in the data set on B16-F10 [3]; in [7]) were “Non-Toxic” and 49%, respectively. Also, the viability at 24 h, 5 µM in data set [4] stood at 91%. In data set [5], the viability at 24 h, 10 µM was 91%. Moreover, the viability at 24 h, 20 µM in data set [6] was determined as 84%.
For `Cc1c(C)c2c(c(C)c1O)CCC(C)(C(=O)O)O2` (stereo not given), the Activity in data set [7] was found to be 49%.
With `S=c1[nH]c2ccc(Cl)cc2o1`, the concentration for half-maximal inhibition (IC50) turned out to be 6250 nM against Mushroom tyrosinase [1] and 2020 nM against Mushroom tyrosinase [2]. The Activity result in the data set with B16-F10 [3] is “Non-Toxic”; with HaCaT it was “Non-Toxic”; in data set [7], 49%.
As to `Cc1cccc2oc(S)nc12`, the concentration for half-maximal inhibition (IC50) amounted to 2150 nM on Mushroom tyrosinase [1] and 2850 nM against Mushroom tyrosinase [2]. In [8], the Ratio IC50 turned out to be 16. Also, the Activity result is “Non-Toxic” in the data set with B16-F10 [3], “Dose-Dependent Effect” with B16-F10 [9], “Non-Toxic” in the data set with HaCaT and 49% in data set [7]. In addition, in data set [10], the inhibition entry is “Dose-Dependent Effect”.
As for `Cc1ccc2[nH]c(=S)oc2c1`, the half-maximal inhibitory concentration (IC50) was 80 nM against Mushroom tyrosinase [1] and 130 nM on Mushroom tyrosinase [2]. The Activity result in the data set with B16-F10 [3] was “Non-Toxic”; with B16-F10 [9], “Dose-Dependent Effect”; in the data set on HaCaT, “Non-Toxic”; in data set [7], 49%. In addition, the Ratio IC50 in data set [11] was 2. Also, the inhibition entry is “Dose-Dependent Effect” in data set [10], more than 92% in [12] and 26% in data set [13]. The inhibition result in data set [14] is “Active”. For the same compound, on Mushroom tyrosinase [15], the Ki was 98 nM.
Turning to `O=[N+]([O-])c1ccc2nc(S)oc2c1`, the 50% inhibitory concentration (IC50) against Mushroom tyrosinase [1] came out at 13760 nM; against Mushroom tyrosinase [2], 12250 nM. Besides, the Activity result in the data set with B16-F10 [3] was “Non-Toxic”; with B16-F10 [9], “Dose-Dependent Effect”; with HaCaT, “Non-Toxic”; in data set [7], 49%. Also, the inhibition result in data set [10] was “Dose-Dependent Effect”.
`O=[N+]([O-])c1cccc2oc(S)nc12`: the half-inhibitory concentration (IC50) at Mushroom tyrosinase [1] was found to be 23840 nM; against Mushroom tyrosinase [2] it was 14800 nM. Further, the Activity entry is “Non-Toxic” in the data set on B16-F10 [3] and 34% in data set [7]. Also, in [6], the viability at 24 h, 20 µM was 94%.
For `Cc1ccc2oc(=S)[nH]c2c1`, the IC50 is 90 nM against Mushroom tyrosinase [1] and 100 nM on Mushroom tyrosinase [2]. The Ratio IC50 in data set [16] stood at 3. Besides, the Activity entry in the data set with B16-F10 [3] was “Non-Toxic”; in the data set with HaCaT, “Non-Toxic”; in data set [7], 49%. Besides, the inhibition in data set [12] is more than 92%; in data set [13] it was 26%. The inhibition entry in data set [17] was “Active”. In addition, at Mushroom tyrosinase [15], the Ki stood at 142 nM.
`Sc1nc2ccccc2o1`: the IC50 against Mushroom tyrosinase [1] worked out at 80 nM; against Mushroom tyrosinase [2] it was 240 nM. The Ratio IC50 in [8] was determined as 440. In addition, the results for the Activity entry (in the data set with B16-F10 [3]; in the data set with HaCaT; in data set [7]) were “Non-Toxic”, “Non-Toxic” and 49%, respectively. Besides, the inhibition is more than 92% in data set [12] and 26% in [13]. The inhibition result in data set [18] was “Active”. In addition, the Ki on Mushroom tyrosinase [15] is recorded as 58 nM.
